The subject of one data set is rats. Nature of the data set: Nicotine drug discrimination. The following applies: rat, sc, training drug. As to the method: AZD0328 was tested for its potential to produce nicotine-like stimulus effects after subcutaneous administration in a drug-discrimination procedure (Table 3).
Data set [1] in a line: Pharmacological activity of metabolite. To be noted: major metabolite. Here is the method:
Pyridinyl methylation of AZD0328 was a unique polar metabolite (M2) observed in dog hepatocytes. Other minor hydroxylation/oxidation and glucuronide conjugation products were detected in monkey, dog, rat, and guinea pig hepatocyte incubations and mini-pig hepatic microsome incubations. […] Analysis of plasma and urine samples from either orally or iv dosed rats confirmed N-oxide product of AZD0328 was a main product in the excretion and circulation. The percentage of AZD0328 N-oxide in the plasma from male rats was much higher than from females.

The structures appear in SMILES notation.

Regarding `CN1CCCC1c1cccnc1` (centres unmarked) [nicotine, reference compound], the Response rates entry in the data set on rats is “not significantly affected”. For `[O-][N+]12CCC(CC1)C1(Cc3cccnc3O1)C2` (centres unmarked) [quinuclidinyl-N-oxide of AZD0328], the Pharmacological activity result in data set [1] was “pharmacological inactive”.

Values taken from US20100168146A1, “Composition Comprising (R)-Spiro[L-Azabicyclo[2.2.2]Octane-3,2'(3'H)-Furo[2,3-B]Pyridine (AZD0328) and its Use in the Treatment of Alzheimer's Disease, ADHD or Cognitive Dysfunction” (priority 2008, published 2010).
